Reference: PubChem BioAssay AID1053154 (Broad Institute, 2014)

Tested on: HepG2, simvastatin, LDLR mRNA qPCR, 6 h
Assay: LDLR mRNA change in statin-treated cells, late-stage follow-up, mechanism study for Trib1 inducer project, cell-based, HepG2, RT-PCR, simvastatin, cherry-pick (AID 1053154)
Details: hits give high values

SMILES	fold change
CN1C(=O)c2cc(NC(=O)c3ccc(C(F)(F)F)cc3)ccc2OC[C@@H]2O[C@@H](CC(=O)NC3Cc4ccccc4C3)CC[C@@H]21	10
CN1C(=O)c2cc(NC(=O)c3ccc(C(F)(F)F)cc3)ccc2OC[C@@H]2O[C@H](CC(=O)NC3Cc4ccccc4C3)CC[C@@H]21	2
